Assay results as given in ChEMBL document CHEMBL5465560, “Selectivity Literature for EUbOPEN Chemogenomic Library” (2024).
Values belong to the compound of their own block, whether it stands above or below them.

Experiments:
[1] = target: Death-associated protein kinase 3 (Homo sapiens) (UniProt O43293); assay: Selectivity interaction (KinomeScan (DiscoverX)) EUB0001049a DAPK3; details: at 1 µM
[2] = target: T1, Cytoplasmic tyrosine-protein kinase BMX (Homo sapiens) (UniProt P51813); assay: Selectivity interaction (Kinase panel (Invitrogen)) EUB0000639a BMX; details: at 200 nM
T1 sequence (whole entry): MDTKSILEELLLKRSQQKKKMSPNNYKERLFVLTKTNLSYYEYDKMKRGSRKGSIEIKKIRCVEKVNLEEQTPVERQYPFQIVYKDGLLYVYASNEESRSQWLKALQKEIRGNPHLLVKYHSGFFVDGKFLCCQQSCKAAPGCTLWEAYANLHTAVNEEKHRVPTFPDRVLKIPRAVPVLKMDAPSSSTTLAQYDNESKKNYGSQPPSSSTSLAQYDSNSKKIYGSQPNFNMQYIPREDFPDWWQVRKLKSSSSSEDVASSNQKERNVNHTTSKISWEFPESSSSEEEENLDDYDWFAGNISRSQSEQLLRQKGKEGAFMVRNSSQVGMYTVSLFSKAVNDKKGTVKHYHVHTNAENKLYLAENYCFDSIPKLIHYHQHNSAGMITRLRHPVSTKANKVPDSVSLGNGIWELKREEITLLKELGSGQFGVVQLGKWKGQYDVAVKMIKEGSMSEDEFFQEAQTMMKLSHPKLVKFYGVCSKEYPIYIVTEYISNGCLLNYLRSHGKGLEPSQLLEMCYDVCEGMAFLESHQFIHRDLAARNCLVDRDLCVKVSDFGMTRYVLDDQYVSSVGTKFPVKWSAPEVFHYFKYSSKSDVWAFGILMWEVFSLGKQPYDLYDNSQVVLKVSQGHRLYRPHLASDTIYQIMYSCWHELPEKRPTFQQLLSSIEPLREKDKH

[3] = target: T2, Protein arginine N-methyltransferase 7 (Homo sapiens) (UniProt Q9NVM4); details: at 1 µM
T2 sequence (whole entry): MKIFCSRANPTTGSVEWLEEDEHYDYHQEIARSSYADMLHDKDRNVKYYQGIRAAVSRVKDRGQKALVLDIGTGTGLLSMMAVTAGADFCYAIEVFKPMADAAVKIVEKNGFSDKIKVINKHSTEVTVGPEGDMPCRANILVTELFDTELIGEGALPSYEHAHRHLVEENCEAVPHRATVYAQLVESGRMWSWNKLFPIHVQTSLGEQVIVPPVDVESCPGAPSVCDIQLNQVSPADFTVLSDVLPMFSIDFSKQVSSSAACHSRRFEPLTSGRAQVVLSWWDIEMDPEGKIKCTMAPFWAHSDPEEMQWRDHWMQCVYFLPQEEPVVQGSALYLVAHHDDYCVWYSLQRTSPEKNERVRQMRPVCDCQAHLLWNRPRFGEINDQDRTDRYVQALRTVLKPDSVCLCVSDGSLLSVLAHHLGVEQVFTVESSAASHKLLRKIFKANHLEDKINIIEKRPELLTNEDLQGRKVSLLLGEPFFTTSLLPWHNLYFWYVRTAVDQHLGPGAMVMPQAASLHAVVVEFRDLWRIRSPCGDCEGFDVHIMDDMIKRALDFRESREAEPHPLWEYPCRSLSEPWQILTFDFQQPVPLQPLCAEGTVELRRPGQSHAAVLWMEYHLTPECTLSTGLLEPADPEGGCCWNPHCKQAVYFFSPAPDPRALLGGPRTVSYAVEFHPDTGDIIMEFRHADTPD

[4] = target: Dual specificity tyrosine-phosphorylation-regulated kinase 1B (Homo sapiens, UniProt Q9Y463); assay: Selectivity interaction (Enzymatic assay) EUB0001550a DYRK1B
[5] = target: T3, Activin receptor type-1 (Homo sapiens) (UniProt Q04771); assay: Selectivity interaction (KinomeScan (DiscoverX)) EUB0001079a ACVR1; details: at 1 µM
T3 sequence (whole entry): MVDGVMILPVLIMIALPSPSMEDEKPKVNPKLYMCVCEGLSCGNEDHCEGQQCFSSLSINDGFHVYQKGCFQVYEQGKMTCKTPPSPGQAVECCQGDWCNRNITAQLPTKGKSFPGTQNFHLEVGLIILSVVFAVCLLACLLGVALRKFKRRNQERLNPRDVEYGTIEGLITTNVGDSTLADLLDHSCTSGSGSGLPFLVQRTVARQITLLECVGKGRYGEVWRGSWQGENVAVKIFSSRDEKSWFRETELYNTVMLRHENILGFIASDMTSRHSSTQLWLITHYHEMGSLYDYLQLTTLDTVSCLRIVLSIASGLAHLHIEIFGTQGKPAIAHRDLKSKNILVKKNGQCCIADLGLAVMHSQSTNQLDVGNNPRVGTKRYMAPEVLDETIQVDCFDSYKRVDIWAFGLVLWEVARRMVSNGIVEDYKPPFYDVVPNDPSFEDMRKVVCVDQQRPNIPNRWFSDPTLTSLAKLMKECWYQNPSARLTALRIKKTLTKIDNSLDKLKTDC

[6] = Selectivity interaction (RapidFire MS assay (using full-length mouse protein MGAT2)) EUB0001079a MGAT2
[7] = target: Serine/threonine-protein kinase PAK 6 (Homo sapiens) (UniProt Q9NQU5); assay: Selectivity interaction (KinomeScan (DiscoverX)) EUB0001079a PAK6; details: at 1 µM
[8] = target: Dual specificity protein kinase CLK2 (Homo sapiens, UniProt P49760); assay: Selectivity interaction (ProQinase) EUB0000171b CLK2
[9] = target: Dual specificity protein kinase CLK3 (Homo sapiens, UniProt P49761); assay: Selectivity interaction (ProQinase) EUB0000171b CLK3
[10] = target: Calcium/calmodulin-dependent protein kinase type 1D (Homo sapiens) (UniProt Q8IU85); assay: Selectivity interaction (KinomeScan (DiscoverX)) EUB0000655a CAMK1D; details: at 10 µM
[11] = target: Receptor tyrosine-protein kinase erbB-4 (Homo sapiens, UniProt Q15303); assay: Selectivity interaction (KinomeScan (DiscoverX)) EUB0000618a ERBB4; details: at 10 µM
[12] = target: Mitogen-activated protein kinase kinase kinase 20 (Homo sapiens) (UniProt Q9NYL2); assay: Selectivity interaction (KinomeScan (DiscoverX)) EUB0000618a MAP3K20; details: at 10 µM
[13] = target: T3, Activin receptor type-1 (Homo sapiens); assay: Selectivity interaction (KinomeScan (DiscoverX)) EUB0000666a ACVR1; details: at 10 µM

Chain of Dual specificity protein kinase CLK3 (P49761 whole entry, looked up): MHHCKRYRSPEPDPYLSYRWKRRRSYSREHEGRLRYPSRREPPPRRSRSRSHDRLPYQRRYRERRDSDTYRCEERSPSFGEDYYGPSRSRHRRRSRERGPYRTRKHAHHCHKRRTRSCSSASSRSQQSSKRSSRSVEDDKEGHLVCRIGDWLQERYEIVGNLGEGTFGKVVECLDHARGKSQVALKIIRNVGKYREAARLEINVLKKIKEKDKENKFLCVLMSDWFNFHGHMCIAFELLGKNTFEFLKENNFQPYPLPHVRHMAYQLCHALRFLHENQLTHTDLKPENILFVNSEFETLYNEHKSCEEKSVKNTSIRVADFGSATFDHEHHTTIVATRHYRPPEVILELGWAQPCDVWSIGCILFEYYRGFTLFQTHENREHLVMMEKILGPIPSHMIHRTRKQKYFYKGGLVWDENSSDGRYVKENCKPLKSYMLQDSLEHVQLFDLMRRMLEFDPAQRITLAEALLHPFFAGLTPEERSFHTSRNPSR
Chain of Dual specificity protein kinase CLK2 (P49760 whole entry, looked up): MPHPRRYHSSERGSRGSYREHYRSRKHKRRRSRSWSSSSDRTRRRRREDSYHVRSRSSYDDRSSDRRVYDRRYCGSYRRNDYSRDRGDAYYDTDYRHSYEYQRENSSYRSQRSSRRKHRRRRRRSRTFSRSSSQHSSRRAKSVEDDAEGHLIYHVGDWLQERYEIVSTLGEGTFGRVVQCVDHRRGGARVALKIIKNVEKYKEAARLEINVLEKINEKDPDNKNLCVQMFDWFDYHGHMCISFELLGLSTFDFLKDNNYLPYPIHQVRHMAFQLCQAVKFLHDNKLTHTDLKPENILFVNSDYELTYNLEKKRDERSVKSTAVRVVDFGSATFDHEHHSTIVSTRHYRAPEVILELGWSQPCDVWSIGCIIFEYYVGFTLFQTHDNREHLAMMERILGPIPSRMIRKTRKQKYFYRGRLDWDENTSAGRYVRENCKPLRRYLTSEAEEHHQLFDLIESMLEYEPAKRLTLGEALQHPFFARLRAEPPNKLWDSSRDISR
Chain of Death-associated protein kinase 3 (Homo sapiens) (O43293 whole entry, looked up): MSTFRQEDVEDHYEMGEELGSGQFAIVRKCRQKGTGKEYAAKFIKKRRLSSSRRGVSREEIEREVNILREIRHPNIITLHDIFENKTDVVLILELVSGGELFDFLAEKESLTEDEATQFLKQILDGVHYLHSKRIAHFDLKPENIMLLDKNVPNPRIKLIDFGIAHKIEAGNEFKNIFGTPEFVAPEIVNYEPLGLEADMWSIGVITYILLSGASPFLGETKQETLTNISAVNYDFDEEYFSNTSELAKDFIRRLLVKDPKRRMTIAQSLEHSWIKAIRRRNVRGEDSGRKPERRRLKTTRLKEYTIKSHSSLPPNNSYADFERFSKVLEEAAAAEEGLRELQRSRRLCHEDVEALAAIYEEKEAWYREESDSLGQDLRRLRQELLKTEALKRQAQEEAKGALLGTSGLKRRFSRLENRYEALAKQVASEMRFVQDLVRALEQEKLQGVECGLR
Chain of Serine/threonine-protein kinase PAK 6 (Homo sapiens) (Q9NQU5 whole entry, looked up): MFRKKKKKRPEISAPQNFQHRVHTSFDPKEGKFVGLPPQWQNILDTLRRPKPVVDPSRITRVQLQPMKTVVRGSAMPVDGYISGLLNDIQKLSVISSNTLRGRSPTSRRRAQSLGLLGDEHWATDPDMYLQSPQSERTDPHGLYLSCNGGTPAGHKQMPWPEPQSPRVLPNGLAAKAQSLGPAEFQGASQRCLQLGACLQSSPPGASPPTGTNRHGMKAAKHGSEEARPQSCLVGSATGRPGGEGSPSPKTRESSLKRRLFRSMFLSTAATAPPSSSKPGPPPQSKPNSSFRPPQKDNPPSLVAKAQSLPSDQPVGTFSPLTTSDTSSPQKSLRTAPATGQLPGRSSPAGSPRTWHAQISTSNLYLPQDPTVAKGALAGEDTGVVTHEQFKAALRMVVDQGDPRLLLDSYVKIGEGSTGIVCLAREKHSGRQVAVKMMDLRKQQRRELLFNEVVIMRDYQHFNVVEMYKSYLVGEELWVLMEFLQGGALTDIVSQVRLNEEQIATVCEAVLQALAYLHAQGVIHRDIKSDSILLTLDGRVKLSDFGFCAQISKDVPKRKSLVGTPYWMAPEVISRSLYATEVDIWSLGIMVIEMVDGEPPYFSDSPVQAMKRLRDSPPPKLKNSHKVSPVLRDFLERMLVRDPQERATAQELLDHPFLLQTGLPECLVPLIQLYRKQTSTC
Chain of Mitogen-activated protein kinase kinase kinase 20 (Homo sapiens) (Q9NYL2 2-800 limits assumed): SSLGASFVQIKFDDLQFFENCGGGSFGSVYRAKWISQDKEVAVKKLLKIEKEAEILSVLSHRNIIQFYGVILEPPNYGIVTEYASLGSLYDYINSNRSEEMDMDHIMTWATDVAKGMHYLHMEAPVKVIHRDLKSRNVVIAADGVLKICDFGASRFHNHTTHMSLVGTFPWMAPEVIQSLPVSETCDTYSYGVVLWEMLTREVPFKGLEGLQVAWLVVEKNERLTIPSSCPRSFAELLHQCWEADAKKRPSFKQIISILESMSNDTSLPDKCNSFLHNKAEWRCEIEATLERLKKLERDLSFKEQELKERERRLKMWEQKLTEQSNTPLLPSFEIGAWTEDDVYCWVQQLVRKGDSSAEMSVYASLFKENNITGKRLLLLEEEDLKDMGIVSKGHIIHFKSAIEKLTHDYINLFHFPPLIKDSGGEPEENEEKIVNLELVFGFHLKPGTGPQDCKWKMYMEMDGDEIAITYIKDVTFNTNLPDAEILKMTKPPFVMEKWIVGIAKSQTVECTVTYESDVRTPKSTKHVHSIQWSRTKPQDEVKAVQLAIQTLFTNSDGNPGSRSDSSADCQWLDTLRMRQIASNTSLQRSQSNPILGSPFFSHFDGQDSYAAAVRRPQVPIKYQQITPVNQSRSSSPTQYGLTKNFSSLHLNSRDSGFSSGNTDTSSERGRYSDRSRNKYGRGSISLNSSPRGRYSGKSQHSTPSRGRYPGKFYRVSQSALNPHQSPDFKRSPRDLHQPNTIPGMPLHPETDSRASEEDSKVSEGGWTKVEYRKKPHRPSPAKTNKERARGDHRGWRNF
Chain of Calcium/calmodulin-dependent protein kinase type 1D (Homo sapiens) (Q8IU85 whole entry, looked up): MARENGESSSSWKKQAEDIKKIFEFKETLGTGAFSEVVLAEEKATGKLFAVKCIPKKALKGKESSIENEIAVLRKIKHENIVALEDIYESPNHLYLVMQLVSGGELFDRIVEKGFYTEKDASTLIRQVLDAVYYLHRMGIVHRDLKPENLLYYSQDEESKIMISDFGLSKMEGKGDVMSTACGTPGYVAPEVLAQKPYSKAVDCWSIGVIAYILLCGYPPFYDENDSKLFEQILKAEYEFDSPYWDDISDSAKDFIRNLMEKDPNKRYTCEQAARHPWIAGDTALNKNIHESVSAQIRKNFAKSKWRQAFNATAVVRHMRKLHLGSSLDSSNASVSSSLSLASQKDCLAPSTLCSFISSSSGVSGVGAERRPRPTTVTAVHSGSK
Chain of Dual specificity tyrosine-phosphorylation-regulated kinase 1B (Q9Y463 whole entry): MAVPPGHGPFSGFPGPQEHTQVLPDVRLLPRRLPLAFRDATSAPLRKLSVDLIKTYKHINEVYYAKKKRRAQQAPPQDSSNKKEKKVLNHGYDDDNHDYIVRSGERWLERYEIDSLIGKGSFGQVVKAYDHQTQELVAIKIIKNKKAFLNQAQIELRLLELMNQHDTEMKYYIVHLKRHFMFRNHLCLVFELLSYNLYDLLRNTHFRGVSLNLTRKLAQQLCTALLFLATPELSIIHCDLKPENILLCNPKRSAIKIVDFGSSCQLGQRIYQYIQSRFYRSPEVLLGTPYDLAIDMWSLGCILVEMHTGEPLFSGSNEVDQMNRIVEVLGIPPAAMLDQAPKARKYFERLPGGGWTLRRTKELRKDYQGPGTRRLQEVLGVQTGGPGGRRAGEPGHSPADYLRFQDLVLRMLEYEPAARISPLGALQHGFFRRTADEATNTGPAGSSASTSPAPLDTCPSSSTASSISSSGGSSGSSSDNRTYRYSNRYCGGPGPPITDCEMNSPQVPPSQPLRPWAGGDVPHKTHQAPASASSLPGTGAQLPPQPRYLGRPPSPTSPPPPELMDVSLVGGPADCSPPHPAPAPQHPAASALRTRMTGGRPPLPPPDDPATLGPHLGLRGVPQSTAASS

Structure (SMILES): COc1cc(Nc2nc(C)cc(-c3cnn4nc(OC)ccc34)n2)cc(C(F)(F)F)c1
% of control [1]: 100%

% of inhibition [2]: -1.42%
Structure (SMILES): CC[C@@H]1[C@H](F)C(=O)N[C@@H]1COc1nccc2cc(C(N)=O)c(OC)cc12 [ZIMLOVISERTIB]

% activity [3]: > 90%
Structure (SMILES): CNCCN1CCC(c2cc(CN(C)C(=O)c3cccc(Oc4ccccc4)c3)ccn2)CC1

IC50 [4]: 380 nM
Structure (SMILES): CN(C)CC#Cc1ccc2[nH]c3c(c2c1)-c1nc(N)ncc1CCC3

Structure (SMILES): Nc1cnc(N2CCc3cc(S(=O)(=O)Nc4c(F)cc(Cl)cc4F)cc(N4CCCC4=O)c32)nc1 [TP-020n]
% of control [5]: 100%
IC50 [6]: 530 nM
% of control [7]: 100%

% of control ([8]; at 1 µM): 81%
% of control ([8]; at 5 µM): 51%
% of control ([9]; at 1 µM): 98%
% of control ([9]; at 5 µM): 89%
Structure (SMILES): C=CC(=O)Nc1cccc(C(=O)Nc2ccc(Nc3cc(-c4[nH]c(SC)nc4C)ccn3)cc2)c1

Structure (SMILES): CN(C)CCOc1ccc(-c2nc(-c3ccncc3)c(-c3ccc4c(c3)CC/C4=N\O)[nH]2)cc1
% of control [10]: 100%

Structure (SMILES): O[C@H]1CC[C@H](Nc2ncc3nc(Nc4c(F)cc(F)cc4F)n([C@H]4CCOC4)c3n2)CC1
% of control [11]: 56%
% of control [12]: 100%

Structure (SMILES): O=C(NOC[C@H](O)CO)c1ccc(F)c(F)c1Nc1ccc(I)cc1F
% of control [13]: 76%
